Experimental data published in the kinase profiling compilation of Christmann-Franck et al. (2016).

Assays:
Assay in all cases: Caliper, Mobility shift assay off-chip
[1] = molecular target: AXL (human) (UniProt P30530)
[2] = molecular target: BRSK2 (human) (UniProt Q8IWQ3)
[3] = molecular target: CAMK2A (human) (UniProt Q9UQM7)
[4] = molecular target: CAMK2D (human) (UniProt Q13557)
[5] = molecular target: CAMK4 (human) (UniProt Q16566)
[6] = molecular target: CDC7 (human) (UniProt O00311)
[7] = molecular target: CHEK1 (human) (UniProt O14757)
[8] = molecular target: CHUK (human) (UniProt O15111)
[9] = molecular target: CLK2 (human) (UniProt P49760)
[10] = molecular target: CLK3 (human) (UniProt P49761)
[11] = molecular target: DCLK2 (human) (UniProt Q8N568)
DCLK2 (human), sequence (Q8N568 whole entry, looked up): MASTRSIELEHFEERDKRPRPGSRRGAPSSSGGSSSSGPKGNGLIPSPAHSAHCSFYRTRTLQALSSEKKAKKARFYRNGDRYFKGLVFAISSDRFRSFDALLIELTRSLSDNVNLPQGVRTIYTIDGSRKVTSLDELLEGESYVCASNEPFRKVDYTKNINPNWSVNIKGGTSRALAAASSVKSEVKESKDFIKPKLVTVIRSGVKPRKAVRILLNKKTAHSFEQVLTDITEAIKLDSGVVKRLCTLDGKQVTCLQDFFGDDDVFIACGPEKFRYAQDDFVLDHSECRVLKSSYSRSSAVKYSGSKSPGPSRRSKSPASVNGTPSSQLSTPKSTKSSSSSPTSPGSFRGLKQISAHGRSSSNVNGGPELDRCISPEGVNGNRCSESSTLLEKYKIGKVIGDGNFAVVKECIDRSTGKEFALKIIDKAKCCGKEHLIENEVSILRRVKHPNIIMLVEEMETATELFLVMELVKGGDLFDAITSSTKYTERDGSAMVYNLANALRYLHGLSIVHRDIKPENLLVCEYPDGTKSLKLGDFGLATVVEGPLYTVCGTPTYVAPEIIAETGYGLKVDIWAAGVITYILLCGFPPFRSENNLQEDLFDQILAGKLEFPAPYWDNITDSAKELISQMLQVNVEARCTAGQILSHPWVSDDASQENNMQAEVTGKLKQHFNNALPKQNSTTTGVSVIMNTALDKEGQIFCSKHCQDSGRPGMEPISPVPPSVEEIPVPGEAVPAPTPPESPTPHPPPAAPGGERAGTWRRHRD

[12] = molecular target: DYRK2 (human) (UniProt Q92630)
[13] = molecular target: EEF2K (human) (UniProt O00418)
[14] = molecular target: EPHA8 (human) (UniProt P29322)
[15] = molecular target: ERBB4 (human) (UniProt Q15303)
[16] = molecular target: FGFR1 (human) (UniProt P11362)
[17] = molecular target: IKBKB (human) (UniProt O14920)
IKBKB (human), sequence (O14920 whole entry, looked up): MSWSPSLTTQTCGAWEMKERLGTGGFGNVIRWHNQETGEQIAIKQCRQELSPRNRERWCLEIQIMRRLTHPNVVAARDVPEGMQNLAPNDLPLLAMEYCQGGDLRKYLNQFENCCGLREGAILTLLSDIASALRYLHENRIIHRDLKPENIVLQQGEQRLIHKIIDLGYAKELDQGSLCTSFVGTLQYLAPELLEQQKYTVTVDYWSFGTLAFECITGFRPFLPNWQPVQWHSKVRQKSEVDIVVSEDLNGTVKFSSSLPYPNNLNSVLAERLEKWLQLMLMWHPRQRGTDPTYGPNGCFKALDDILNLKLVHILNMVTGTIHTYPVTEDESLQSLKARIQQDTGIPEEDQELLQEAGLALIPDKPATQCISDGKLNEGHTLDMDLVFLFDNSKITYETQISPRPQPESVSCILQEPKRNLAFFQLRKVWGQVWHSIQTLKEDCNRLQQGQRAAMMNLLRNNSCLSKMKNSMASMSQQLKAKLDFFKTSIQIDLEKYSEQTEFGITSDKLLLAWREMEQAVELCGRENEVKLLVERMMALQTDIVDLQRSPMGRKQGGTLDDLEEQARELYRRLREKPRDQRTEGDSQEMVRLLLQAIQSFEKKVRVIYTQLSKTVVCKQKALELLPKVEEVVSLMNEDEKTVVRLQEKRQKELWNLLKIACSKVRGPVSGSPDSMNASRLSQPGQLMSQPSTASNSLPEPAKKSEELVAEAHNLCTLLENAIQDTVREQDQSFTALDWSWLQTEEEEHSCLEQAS

[18] = molecular target: MAPK3 (human) (UniProt P27361)
[19] = molecular target: MAPKAPK3 (human) (UniProt Q16644)
[20] = molecular target: MELK (human) (UniProt Q14680)
[21] = molecular target: NEK7 (human) (UniProt Q8TDX7)
[22] = molecular target: PRKCI (human) (UniProt P41743)
[23] = molecular target: RPS6KA1 KD1 KD2 (human) (UniProt Q15418)
[24] = molecular target: RPS6KB1 (human) (UniProt P23443)
[25] = molecular target: SLK (human) (UniProt Q9H2G2)
SLK (human), sequence (Q9H2G2 whole entry, looked up): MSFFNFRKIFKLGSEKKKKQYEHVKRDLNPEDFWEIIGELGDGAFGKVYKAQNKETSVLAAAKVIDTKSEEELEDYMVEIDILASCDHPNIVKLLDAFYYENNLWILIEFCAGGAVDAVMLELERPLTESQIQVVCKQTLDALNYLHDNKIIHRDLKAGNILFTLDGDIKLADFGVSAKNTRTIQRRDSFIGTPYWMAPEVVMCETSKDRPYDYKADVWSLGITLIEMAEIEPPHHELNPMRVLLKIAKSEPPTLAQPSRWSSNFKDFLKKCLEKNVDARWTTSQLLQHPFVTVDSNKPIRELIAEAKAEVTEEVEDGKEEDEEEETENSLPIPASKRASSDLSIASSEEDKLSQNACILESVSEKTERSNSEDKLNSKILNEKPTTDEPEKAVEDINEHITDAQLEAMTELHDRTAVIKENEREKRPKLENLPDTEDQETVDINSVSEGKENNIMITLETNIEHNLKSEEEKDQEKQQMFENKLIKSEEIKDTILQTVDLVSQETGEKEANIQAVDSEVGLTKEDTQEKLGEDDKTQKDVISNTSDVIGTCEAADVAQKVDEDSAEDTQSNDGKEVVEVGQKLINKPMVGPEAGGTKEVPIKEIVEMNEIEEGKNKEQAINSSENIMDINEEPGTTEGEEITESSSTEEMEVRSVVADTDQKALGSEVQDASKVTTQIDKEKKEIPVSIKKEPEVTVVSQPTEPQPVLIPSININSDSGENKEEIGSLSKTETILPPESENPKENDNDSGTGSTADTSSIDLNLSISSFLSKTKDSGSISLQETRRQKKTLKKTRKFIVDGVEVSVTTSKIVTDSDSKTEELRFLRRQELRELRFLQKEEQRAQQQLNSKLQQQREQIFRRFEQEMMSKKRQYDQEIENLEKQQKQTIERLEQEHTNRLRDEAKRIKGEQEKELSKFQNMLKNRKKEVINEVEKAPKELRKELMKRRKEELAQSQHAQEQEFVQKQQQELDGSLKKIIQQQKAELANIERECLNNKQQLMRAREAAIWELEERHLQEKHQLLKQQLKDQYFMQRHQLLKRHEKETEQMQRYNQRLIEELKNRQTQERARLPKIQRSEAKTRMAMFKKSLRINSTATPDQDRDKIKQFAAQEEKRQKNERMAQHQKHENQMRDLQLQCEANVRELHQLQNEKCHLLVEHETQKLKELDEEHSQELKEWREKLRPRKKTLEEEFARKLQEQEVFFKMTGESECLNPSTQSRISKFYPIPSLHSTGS

[26] = molecular target: SRMS (human) (UniProt Q9H3Y6)
[27] = molecular target: STK38 (human) (UniProt Q15208)
[28] = molecular target: WNK3 (human) (UniProt Q9BYP7)
WNK3 (human), sequence (Q9BYP7 whole entry, looked up): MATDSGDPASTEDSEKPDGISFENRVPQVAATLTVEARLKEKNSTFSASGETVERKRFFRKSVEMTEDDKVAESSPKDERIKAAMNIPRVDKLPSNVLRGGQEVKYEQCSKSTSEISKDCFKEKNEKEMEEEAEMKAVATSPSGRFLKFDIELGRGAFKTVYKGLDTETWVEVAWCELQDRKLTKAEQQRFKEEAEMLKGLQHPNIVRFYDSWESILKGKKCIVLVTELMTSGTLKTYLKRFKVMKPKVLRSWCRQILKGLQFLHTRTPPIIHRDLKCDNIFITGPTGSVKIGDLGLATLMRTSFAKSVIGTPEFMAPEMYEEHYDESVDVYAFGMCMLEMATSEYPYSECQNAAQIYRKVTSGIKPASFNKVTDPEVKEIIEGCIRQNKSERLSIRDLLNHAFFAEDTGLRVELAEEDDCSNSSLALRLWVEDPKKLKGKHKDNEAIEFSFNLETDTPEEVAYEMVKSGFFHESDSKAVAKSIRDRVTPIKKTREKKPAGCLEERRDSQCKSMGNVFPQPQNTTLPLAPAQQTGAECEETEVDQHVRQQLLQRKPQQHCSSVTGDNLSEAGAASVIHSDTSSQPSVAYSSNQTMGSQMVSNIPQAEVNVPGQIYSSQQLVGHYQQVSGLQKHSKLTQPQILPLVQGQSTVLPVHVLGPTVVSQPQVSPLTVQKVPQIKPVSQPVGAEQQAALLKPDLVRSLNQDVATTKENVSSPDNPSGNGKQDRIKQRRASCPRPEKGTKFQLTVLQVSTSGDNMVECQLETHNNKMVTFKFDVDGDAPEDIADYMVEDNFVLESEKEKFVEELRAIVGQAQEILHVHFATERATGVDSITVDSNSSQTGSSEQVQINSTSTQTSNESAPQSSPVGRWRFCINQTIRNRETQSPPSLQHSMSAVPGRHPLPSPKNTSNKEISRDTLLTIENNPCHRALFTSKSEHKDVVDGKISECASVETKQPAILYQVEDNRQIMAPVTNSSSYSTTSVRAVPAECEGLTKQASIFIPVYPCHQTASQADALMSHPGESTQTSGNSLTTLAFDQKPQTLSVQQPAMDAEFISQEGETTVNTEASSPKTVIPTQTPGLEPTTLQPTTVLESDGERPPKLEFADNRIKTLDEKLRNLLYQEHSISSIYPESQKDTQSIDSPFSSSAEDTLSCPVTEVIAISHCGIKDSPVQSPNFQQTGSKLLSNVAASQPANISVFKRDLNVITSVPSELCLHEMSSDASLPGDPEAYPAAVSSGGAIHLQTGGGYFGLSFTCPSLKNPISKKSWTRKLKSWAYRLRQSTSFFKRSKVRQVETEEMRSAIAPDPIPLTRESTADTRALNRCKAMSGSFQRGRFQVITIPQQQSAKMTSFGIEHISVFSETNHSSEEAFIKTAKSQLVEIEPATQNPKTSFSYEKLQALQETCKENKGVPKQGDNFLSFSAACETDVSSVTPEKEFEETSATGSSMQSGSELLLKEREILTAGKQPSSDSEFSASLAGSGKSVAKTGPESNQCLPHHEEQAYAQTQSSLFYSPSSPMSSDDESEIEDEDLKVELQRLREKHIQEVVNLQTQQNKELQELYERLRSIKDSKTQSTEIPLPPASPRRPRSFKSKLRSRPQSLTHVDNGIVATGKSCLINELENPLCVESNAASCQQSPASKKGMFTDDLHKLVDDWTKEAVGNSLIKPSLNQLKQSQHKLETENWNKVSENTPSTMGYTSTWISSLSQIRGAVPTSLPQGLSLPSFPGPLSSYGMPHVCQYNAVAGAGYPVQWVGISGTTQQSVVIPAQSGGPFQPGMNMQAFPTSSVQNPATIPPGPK

[29] = molecular target: KDR (human) (UniProt P35968)
[30] = molecular target: LATS2 (human) (UniProt Q9NRM7); conditions: compound 0.02 µM
[31] = molecular target: MARK2 (human) (UniProt Q7KZI7)
[32] = molecular target: NTRK3 (human) (UniProt Q16288)
[33] = molecular target: SRC (human) (UniProt P12931)

CAMK2D (human), sequence (Q13557 whole entry, looked up): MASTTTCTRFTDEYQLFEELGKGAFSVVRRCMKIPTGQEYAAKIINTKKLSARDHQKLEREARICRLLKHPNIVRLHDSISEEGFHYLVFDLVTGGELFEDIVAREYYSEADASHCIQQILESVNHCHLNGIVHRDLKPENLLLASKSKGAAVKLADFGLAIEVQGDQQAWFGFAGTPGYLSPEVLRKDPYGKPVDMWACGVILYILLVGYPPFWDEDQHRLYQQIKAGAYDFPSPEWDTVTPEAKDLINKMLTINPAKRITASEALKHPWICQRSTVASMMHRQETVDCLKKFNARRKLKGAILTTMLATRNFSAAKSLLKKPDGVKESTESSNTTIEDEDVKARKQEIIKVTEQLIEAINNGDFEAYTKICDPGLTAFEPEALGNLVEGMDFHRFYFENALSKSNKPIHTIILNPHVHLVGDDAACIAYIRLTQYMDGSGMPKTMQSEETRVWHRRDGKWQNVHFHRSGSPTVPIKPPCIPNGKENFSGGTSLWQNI

Compound: CCN(CC)CCNC(=O)c1c(C)[nH]c(/C=C2\C(=O)Nc3ccc(F)cc32)c1C
- inhibition ([1]; compound 0.2 µM): 96.8%
- inhibition ([1]; compound 4.0 µM): 102%
- inhibition ([2]; compound 0.2 µM): 36.7%
- inhibition ([2]; compound 4.0 µM): 85.9%
- inhibition ([3]; compound 0.2 µM): 24.5%
- inhibition ([3]; compound 4.0 µM): 89%
- inhibition ([4]; compound 0.2 µM): 88.8%
- inhibition ([4]; compound 4.0 µM): 100%
- inhibition ([5]; compound 0.2 µM): 15.7%
- inhibition ([5]; compound 4.0 µM): 80.8%
- inhibition ([6]; compound 0.2 µM): 0.9%
- inhibition ([6]; compound 4.0 µM): 4.9%
- inhibition ([7]; compound 0.2 µM): 59.3%
- inhibition ([7]; compound 4.0 µM): 95.2%
- inhibition ([8]; compound 0.2 µM): 3%
- inhibition ([8]; compound 4.0 µM): 2.9%
- inhibition ([9]; compound 0.2 µM): 78.3%
- inhibition ([9]; compound 4.0 µM): 97.2%
- inhibition ([10]; compound 0.2 µM): 9.2%
- inhibition ([10]; compound 4.0 µM): 37%
- inhibition ([11]; compound 0.2 µM): 5.2%
- inhibition ([11]; compound 4.0 µM): 49.8%
- inhibition ([12]; compound 0.2 µM): 25%
- inhibition ([12]; compound 4.0 µM): 87.4%
- inhibition ([13]; compound 0.2 µM): 2.7%
- inhibition ([13]; compound 4.0 µM): 4%
- inhibition ([14]; compound 0.2 µM): -0.2%
- inhibition ([14]; compound 4.0 µM): 27.7%
- inhibition ([15]; compound 0.2 µM): -0.9%
- inhibition ([15]; compound 4.0 µM): 33.9%
- inhibition ([16]; compound 0.2 µM): 52.9%
- inhibition ([16]; compound 4.0 µM): 96.2%
- inhibition ([17]; compound 0.2 µM): -2.1%
- inhibition ([17]; compound 4.0 µM): 4.2%
- inhibition ([18]; compound 0.2 µM): -4.8%
- inhibition ([18]; compound 4.0 µM): -0.9%
- inhibition ([19]; compound 0.2 µM): 1.2%
- inhibition ([19]; compound 4.0 µM): 3.2%
- inhibition ([20]; compound 0.2 µM): 80%
- inhibition ([20]; compound 4.0 µM): 99.2%
- inhibition ([21]; compound 0.2 µM): -1.4%
- inhibition ([21]; compound 4.0 µM): -5.6%
- inhibition ([22]; compound 0.2 µM): -2%
- inhibition ([22]; compound 4.0 µM): 7.8%
- inhibition ([23]; compound 0.2 µM): 53.9%
- inhibition ([24]; compound 0.2 µM): 66.4%
- inhibition ([24]; compound 4.0 µM): 96.6%
- inhibition ([25]; compound 0.2 µM): 78.3%
- inhibition ([26]; compound 0.2 µM): -0.6%
- inhibition ([26]; compound 4.0 µM): 24%
- inhibition ([27]; compound 0.2 µM): 8.9%
- inhibition ([27]; compound 4.0 µM): 45.1%
- inhibition ([28]; compound 0.2 µM): 1.8%
- inhibition ([28]; compound 4.0 µM): 2.4%

Compound: CNC(=O)c1ccccc1Sc1ccc2c(/C=C/c3ccccn3)n[nH]c2c1
- inhibition ([1]; compound 0.001 µM): -0.8%
- inhibition ([1]; compound 0.02 µM): 4.1%
- inhibition ([2]; compound 0.001 µM): -3.5%
- inhibition ([2]; compound 0.02 µM): 12.9%
- inhibition ([3]; compound 0.001 µM): 3.7%
- inhibition ([3]; compound 0.02 µM): 3.2%
- inhibition ([4]; compound 0.001 µM): 3%
- inhibition ([4]; compound 0.02 µM): 2.4%
- inhibition ([5]; compound 0.001 µM): -4%
- inhibition ([5]; compound 0.02 µM): -4.7%
- inhibition ([6]; compound 0.001 µM): -4.9%
- inhibition ([6]; compound 0.02 µM): -5.8%
- inhibition ([7]; compound 0.001 µM): -2%
- inhibition ([7]; compound 0.02 µM): 0.9%
- inhibition ([8]; compound 0.001 µM): -2.6%
- inhibition ([8]; compound 0.02 µM): 2.6%
- inhibition ([9]; compound 0.001 µM): -3.8%
- inhibition ([9]; compound 0.02 µM): 5.8%
- inhibition ([10]; compound 0.001 µM): 10.3%
- inhibition ([10]; compound 0.02 µM): -5.1%
- inhibition ([11]; compound 0.001 µM): -2.7%
- inhibition ([11]; compound 0.02 µM): -2.1%
- inhibition ([12]; compound 0.001 µM): 8.7%
- inhibition ([12]; compound 0.02 µM): -6.4%
- inhibition ([13]; compound 0.001 µM): -4.8%
- inhibition ([13]; compound 0.02 µM): 2.3%
- inhibition ([14]; compound 0.001 µM): -5%
- inhibition ([14]; compound 0.02 µM): -4.7%
- inhibition ([15]; compound 0.001 µM): 6.3%
- inhibition ([15]; compound 0.02 µM): 3.7%
- inhibition ([17]; compound 0.001 µM): 5.5%
- inhibition ([17]; compound 0.02 µM): 3.1%
- inhibition ([29]; compound 0.001 µM): 47.3%
- inhibition ([29]; compound 0.02 µM): 97.4%
- inhibition [30]: -2.3%
- inhibition ([18]; compound 0.001 µM): -4.1%
- inhibition ([18]; compound 0.02 µM): -6.1%
- inhibition ([19]; compound 0.001 µM): -0.7%
- inhibition ([19]; compound 0.02 µM): -5.2%
- inhibition ([31]; compound 0.001 µM): 3.5%
- inhibition ([31]; compound 0.02 µM): 11.8%
- inhibition ([20]; compound 0.001 µM): 1.9%
- inhibition ([20]; compound 0.02 µM): 0.9%
- inhibition ([21]; compound 0.001 µM): -3.9%
- inhibition ([21]; compound 0.02 µM): -4.1%
- inhibition ([32]; compound 0.001 µM): 2.6%
- inhibition ([32]; compound 0.02 µM): 12.9%
- inhibition ([22]; compound 0.001 µM): 3%
- inhibition ([22]; compound 0.02 µM): 3.9%
- inhibition ([23]; compound 0.001 µM): -5.4%
- inhibition ([23]; compound 0.02 µM): -2.8%
- inhibition ([24]; compound 0.001 µM): 6.6%
- inhibition ([24]; compound 0.02 µM): 10.6%
- inhibition ([25]; compound 0.001 µM): -5.4%
- inhibition ([25]; compound 0.02 µM): 10.3%
- inhibition ([33]; compound 0.001 µM): 1.3%
- inhibition ([33]; compound 0.02 µM): -0.2%
- inhibition ([26]; compound 0.001 µM): -4.5%
- inhibition ([26]; compound 0.02 µM): -4.9%
- inhibition ([27]; compound 0.001 µM): 8%
- inhibition ([27]; compound 0.02 µM): -1.3%
- inhibition ([28]; compound 0.001 µM): 0.8%
- inhibition ([28]; compound 0.02 µM): -1.4%
